Molecules are shown by their SMILES.

One assay addresses T1, γ-secretase (C100FLAG APP-based substrate) (Homo sapiens, UniProt P49768).
T1 construct: made in house; host or cells: S-1 CHO cell line (Chinese hamster ovary)
Put plainly: In vitro γ-secretase assay, C-100 Flag (APP-based substrate) cleavage. It counts as biochemical. The following applies: effect on C-100 Flag cleavage; compounds tested in vitro at 100 μM. As for the experimental part:
(§1) Purification of γ-Secretase and in Vitro γ-Secretase Assays—The following procedures can be used to isolate γ-secretase and measure its enzymatic activity. The multistep procedure for the high grade purification of human γ-secretase from the S-1 cells is performed as described previously (Fraering, P. C., et al. (2004) Biochemistry 43, 9774-9789). In vitro γ-secretase assays using the recombinant APP-based substrate C100FLAG and the recombinant Notch-based substrate N100FLAG are performed as reported previously (Esler, W. P., Kimberly, W. T., Ostaszewski, B. L., Ye, W., Diehl, T. S., Selkoe, D. J., and Wolfe, M. S. (2002) Proc. Natl. Acad. Sci. U.S.A. 99, 2720-2725, Kimberly, W. T., et al. (2003) Biochemistry 42, 137-144). Basically, the proteolytic reaction mixtures contain C100FLAG and N100FLAG substrate at a concentration of 1 μm, purified γ-secretase solubilized in 0.2% CHAPSO/HEPES, pH 7.5, at 10-fold dilution from stock (stock=the M2 anti-FLAG-eluted fraction in the purification protocol from S-1 cells (Fraering, P. C., et al. (2004) Biochemistry 43, 9774-9789)), 0.025% phosphatidylethanolamine (PE), and 0.10% phosphatidylcholine (PC). All the reactions are stopped by adding 0.5% SDS, and the samples are assayed for Aβ40 and Aβ42 by ELISA as described (Xia, W., Zhang, J., Ostaszewski, B. L., Kimberly, W. T., Seubert, P., Koo, E. H., Shen, J., and Selkoe, D. J. (1998) Biochemistry 37, 16465-16471). The capture antibodies are 2G3 (to Aβ residues 33-40) for the Aβ40 species and 21F12 (to Aβ residues 33-42) for the Aβ42 species.
Western Blotting and Antibodies—The following assay can be used to determine the extent to which the compounds of interest modulate the cleavage of APP and the Notch receptor. For Western analysis of PS1-NTF, PS1-CTF, Aph1α2-HA, FLAG-Pen-2, and NCT-GST, the samples are run on 4-20% Tris-glycine polyacrylamide gels, transferred to polyvinylidene difluoride, and can be probed with Ab14 (for PS1-NTF, 1:2000; a gift of S. Gandy), 13A11 (for PS1-CTF, 5 μg/ml; a gift of Elan Pharmaceuticals), 3F10 (for Aph1α2-HA, 50 ng/ml; Roche Applied Science), anti-FLAG M2 (for FLAG-Pen-2, 1:1000; Sigma), or αGST antibodies (for NCT-GST, 1:3000; Sigma). Samples from the γ-secretase activity assays (above) are run on 4-20% Tris-glycine gels and can be transferred to polyvinylidene difluoride membranes to detect AICD-FLAG with anti-FLAG M2 antibodies (1:1000, Sigma) and NICD-FLAG with Notch Ab1744 antibody (1:1000, Cell Signaling Technology), which is selective for the N terminus of NICD; the same samples are transferred to nitrocellulose membranes to detect Aβ with the anti-Aβ 6E10 antibody. Levels of AICD-FLAG and NICD-FLAG are estimated by densitometry using AlphaEase/Spot Denso (Alpha Innotech Corp.).
(§2) Naphthyl Amine Alcohol Analogs and Assay Data—Compounds listed in Table 2 may be assayed as described herein (e.g., in Examples 3 and 4) and the specificity may be evaluated by comparing the relative inhibitions of C-100 Flag and N-100 Flag cleavage. The potency of the inhibitor may be evaluated with an Aβ1-40 ELISA assay (e.g., using an Aβ40 ELISA kit available from Invitrogen, Carlsbad, Calif.). […] The following table indicates the properties of certain compounds of the invention that were assayed as described herein. (INH=Inhibits)
For `COc1ccc(N2CCN(CCC(O)c3ccc4ccccc4c3)CC2)cc1` (centres unmarked) [Example 2], the “γ-Secretase Assay C-100 Flag” value is “No change (NC)”.

With `OC(CCNc1ccccc1)c1ccc2ccccc2c1` (centres unmarked) [Example 10], the “γ-Secretase Assay C-100 Flag” value is reported as “Enh”.

Regarding `CCN(CCC(O)c1ccc2ccccc2c1)Cc1ccccc1` (centres unmarked) [Example 12], the “γ-Secretase Assay C-100 Flag” value is on record as “Enh”.

As for `COc1ccc(CN(CCC(O)c2ccc3ccccc3c2)C(C)C)cc1` (centres unmarked) [Example 29], the “γ-Secretase Assay C-100 Flag” value was “Inh”.

With `OC(CCNc1ccc(Oc2ccccc2)cc1)c1ccc2ccccc2c1` (centres unmarked) [Example 77], the “γ-Secretase Assay C-100 Flag” value is “Inh”.

Consider `Cc1ccc(NCCC(O)c2ccc3ccccc3c2)cc1F` (centres unmarked) [Example 78], for which the “γ-Secretase Assay C-100 Flag” value was “Enh”.

With `CCOc1ccc(NCCC(O)c2ccc(F)cc2)cc1` (centres unmarked) [Example 79], the “γ-Secretase Assay C-100 Flag” value was “Enh”.

With `COc1ccc(NCCC(O)c2ccc(Cl)cc2)cc1` (centres unmarked) [Example 80], the “γ-Secretase Assay C-100 Flag” value is on record as “Enh”.

For a further assay, the target named is T2, γ-secretase (Aβ1-40 production) (Homo sapiens, UniProt P49768).
T2 construct: made in house; host or cells: S-1 CHO cell line (Chinese hamster ovary)
The experiment in a line: γ-Secretase assay, Aβ1-40 ELISA. It counts as biochemical. As to conditions: 50 μM. How it is done: as §1, §2
(In general: In an ELISA, binding on a coated surface is turned into a signal by an enzyme label.)
As to `C[C@@H](CN1CCN(c2ccc(F)cc2)CC1)[C@H](O)c1ccc2ccccc2c1` [Example 89], at 50 µM the inhibition was 9%.

In turn, `C[C@H](CN1CCN(c2ccc(F)cc2)CC1)[C@H](O)c1ccc2ccccc2c1` [Example 90] gave an inhibition at 50 µM of 0%.

Still in this assay, the particulars now being: 100 μM.
As to `COc1ccc(N2CCN(CCC(O)c3ccc4ccccc4c3)CC2)cc1` (centres unmarked) [Example 2], the inhibition at 100 µM was found to be 0%.

In turn, `CC(C)N(CCC(O)c1ccccc1)Cc1ccccc1` (centres unmarked) [Example 4] gave an inhibition at 100 µM of 10%.

Turning to `OC(CCN(Cc1ccccc1)Cc1ccccc1)c1ccc2ccccc2c1` (centres unmarked) [Example 5], at 100 µM the inhibition was 32%.

`OC(CCN1CCCCCCC1)c1ccc2ccccc2c1` (centres unmarked) [Example 6] had an inhibition at 100 µM of 20%.

Consider `OC(CCN(C1CCCCC1)C1CCCCC1)c1ccc2ccccc2c1` (centres unmarked) [Example 7], for which the inhibition at 100 µM turned out to be 7%.

Take `CN(CCC(O)c1ccc2ccccc2c1)Cc1ccccc1` (centres unmarked) [Example 8]: the “γ-Secretase Assay ELISA % Inhibition [100 μM] Aβ1-40” value was 15%.

With `CC(C)CN(CCC(O)c1ccc2ccccc2c1)CC(C)C` (centres unmarked) [Example 9], the inhibition at 100 µM stood at 0%.

In turn, `OC(CCNc1ccccc1)c1ccc2ccccc2c1` (centres unmarked) [Example 10] had an inhibition at 100 µM of 0%.

The molecule `CC(C)(C)N(CCC(O)c1ccc2ccccc2c1)Cc1ccccc1` (centres unmarked) [Example 11] returned an inhibition at 100 µM of 0%.

In turn, `CCN(CCC(O)c1ccc2ccccc2c1)Cc1ccccc1` (centres unmarked) [Example 12] showed an inhibition at 100 µM of 0%.

Turning to `CN(CCc1ccccc1)CCC(O)c1ccc2ccccc2c1` (centres unmarked) [Example 15], the inhibition at 100 µM came to 27%.

For `OC(CCN1CCC2(CC1)OCCO2)c1ccc2ccccc2c1` (centres unmarked) [Example 16], the inhibition at 100 µM is 2%.

In turn, `OC(CCNc1ccc2c(c1)OCCO2)c1ccc2ccccc2c1` (centres unmarked) [Example 21] came in with an inhibition at 100 µM of 0%.

In turn, `OC(CCNc1ccc(C2CCCCC2)cc1)c1ccc2ccccc2c1` (centres unmarked) [Example 22] displayed an inhibition at 100 µM of 0%.

As to `OC(CCNc1ccc(Cl)c(Cl)c1)c1ccc2ccccc2c1` (centres unmarked) [Example 23], at 100 µM the inhibition was 0%.

In turn, `OC(CCNc1ccc(C(F)(F)F)cc1)c1ccc2ccccc2c1` (centres unmarked) [Example 24] registered an inhibition at 100 µM of 0%.

In the case of `COc1ccc(NCCC(O)c2ccc3ccccc3c2)cc1` (centres unmarked) [Example 25], the inhibition at 100 µM came to 0%.

`CN(CCC(O)c1ccc2ccccc2c1)c1ccc(Oc2ccccc2)cc1` (centres unmarked) [Example 26] had an inhibition at 100 µM of 6%.

`CC(C)N(CCC(O)c1ccc2ccccc2c1)c1ccc(Cl)cc1` (centres unmarked) [Example 27] displayed an inhibition at 100 µM of 0%.

For `OC(CCNc1cc(F)ccc1F)c1ccc2ccccc2c1` (centres unmarked) [Example 28], testing at 100 µM gave an inhibition of 0%.

Molecule `COc1ccc(CN(CCC(O)c2ccc3ccccc3c2)C(C)C)cc1` (centres unmarked) [Example 29] had an inhibition at 100 µM of 55%.

`CC(C)N(CCC(O)c1ccc2ccccc2c1)Cc1ccc(C#N)cc1` (centres unmarked) [Example 34] came in with an inhibition at 100 µM of 19%.

`COc1cc(CN(CCC(O)c2ccc3ccccc3c2)C(C)C)cc(OC)c1` (centres unmarked) [Example 35] yielded an inhibition at 100 µM of 17%.

For the molecule `CC(C)N(CCC(O)c1ccc2ccccc2c1)Cc1cccc(C#N)c1` (centres unmarked) [Example 36], testing at 100 µM gave an inhibition of 7%.

In the case of `OC(CCN(Cc1ccccc1)C1CC1)c1ccc2ccccc2c1` (centres unmarked) [Example 37], testing at 100 µM gave an inhibition of 36%.

In the case of `CC(C)N(CCC(O)c1ccc(F)cc1)Cc1ccccc1` (centres unmarked) [Example 38], testing at 100 µM gave an inhibition of 17%.

For the molecule `OC(CCN1CCN(c2ccc(F)cc2)CC1)c1ccc(C(F)(F)F)cc1` (centres unmarked) [Example 39], the inhibition at 100 µM came to 14%.

For the molecule `CC(C)(C)c1ccc(C(O)CCN2CCN(c3ccc(F)cc3)CC2)cc1` (centres unmarked) [Example 40], the inhibition at 100 µM was 46%.

The molecule `CC(C)N(CCC(O)c1ccc2ccccc2c1)Cc1ccc(F)c(Cl)c1` (centres unmarked) [Example 43] showed an inhibition at 100 µM of 0%.

Take `CC(C)N(CCCC(O)c1cccc2ccccc12)Cc1ccccc1` (centres unmarked) [Example 45]: the inhibition at 100 µM is 0%.

As for `CC(C)N(CCCC(O)c1ccc2ccccc2c1)Cc1ccccc1` (centres unmarked) [Example 46], the inhibition at 100 µM turned out to be 2%.

As for `OC(CCN1CCN(Cc2ccccc2)CC1)c1ccc2ccccc2c1` (centres unmarked) [Example 47], 100 µM produced 0% inhibition.

Consider `Cc1cc(C)c(C(O)CCN(Cc2ccccc2)C(C)C)c(C)c1` (centres unmarked) [Example 49], for which the inhibition at 100 µM is 0%.

Molecule `CC(C)N(CCC(O)c1ccc(OC2CCCCO2)cc1)Cc1ccccc1` (centres unmarked) [Example 50] showed an inhibition at 100 µM of 0%.

`COc1ccc2cc(C(O)CCN(Cc3ccccc3)C(C)C)ccc2c1` (centres unmarked) [Example 51] had an inhibition at 100 µM of 10%.

`CC(C)N(CCC(O)c1ccc(Oc2ccccc2)cc1)Cc1ccccc1` (centres unmarked) [Example 52]: the inhibition at 100 µM is 24%.

`CC(C)N(CCC(O)c1cccc(OCc2ccccc2)c1)Cc1ccccc1` (centres unmarked) [Example 53] returned an inhibition at 100 µM of 31%.

As to `CC(C)N(CCC(O)c1ccc(OC(F)(F)F)cc1)Cc1ccccc1` (centres unmarked) [Example 58], the inhibition at 100 µM stood at 1%.

As for `COc1ccc(C(O)CCN(Cc2ccccc2)C(C)C)cc1OC` (centres unmarked) [Example 59], the inhibition at 100 µM was 0%.

`COc1ccc(C(O)CCN(Cc2ccccc2)C(C)C)cc1F` (centres unmarked) [Example 60] displayed an inhibition at 100 µM of 0%.

As for `CC(C)N(CCC(O)c1ccccc1CN1CCCCC1)Cc1ccccc1` (centres unmarked) [Example 61], the inhibition at 100 µM was 0%.

On to `CC(C)N(CCC(O)c1ccc2c(c1)OCO2)Cc1ccccc1` (centres unmarked) [Example 62], for which the inhibition at 100 µM turned out to be 0%.

Turning to `Cc1ccc(C(O)CCN(Cc2ccccc2)C(C)C)cc1C` (centres unmarked) [Example 63], the inhibition at 100 µM turned out to be 0%.

`CC(C)N(CCC(O)c1ccc(C#N)cc1)Cc1ccccc1` (centres unmarked) [Example 64] had an inhibition at 100 µM of 6%.

Molecule `CC(C)N(CCC(O)c1ccc2ccccc2c1)Cc1ccc(C(=O)O)cc1` (centres unmarked) [Example 66] yielded an inhibition at 100 µM of 2%.

Regarding `CC(C)N(CCC(O)c1ccc(C(=O)O)cc1)Cc1ccccc1` (centres unmarked) [Example 67], the inhibition at 100 µM was determined as 27%.

On to `COc1cccc2cc(C(O)CCN(Cc3ccccc3)C(C)C)oc12` (centres unmarked) [Example 70], for which the inhibition at 100 µM came out at 0%.

For `CC(C)N(CC[C@H](O)c1ccc2ccccc2c1)Cc1ccccc1` [Example 76], the inhibition at 100 µM was found to be 17%.

The molecule `OC(CCNc1ccc(Oc2ccccc2)cc1)c1ccc2ccccc2c1` (centres unmarked) [Example 77] registered an inhibition at 100 µM of 48%.

With `Cc1ccc(NCCC(O)c2ccc3ccccc3c2)cc1F` (centres unmarked) [Example 78], the inhibition at 100 µM came out at 0%.

For the molecule `CCOc1ccc(NCCC(O)c2ccc(F)cc2)cc1` (centres unmarked) [Example 79], the inhibition at 100 µM was determined as 0%.

With `COc1ccc(NCCC(O)c2ccc(Cl)cc2)cc1` (centres unmarked) [Example 80], the inhibition at 100 µM was 0%.

Turning to `CC(C)N(CCC(Oc1ccc(C(F)(F)F)cc1)c1ccc2ccccc2c1)Cc1ccccc1` (centres unmarked) [Example 85], the inhibition at 100 µM was 50%.

Take `COC(CCN(Cc1ccccc1)C(C)C)c1ccc2cc(C(O)CCN(Cc3ccccc3)C(C)C)ccc2c1` (centres unmarked) [Example 86]: the inhibition at 100 µM is 12%.

As for `CC(CN(Cc1ccccc1)C(C)C)C(O)c1ccc2ccccc2c1` (centres unmarked) [Example 87], the “γ-Secretase Assay ELISA % Inhibition [100 μM] Aβ1-40” value was 22%.

Usually inhibition stands for how much of the control response was suppressed. Read a low inhibition as little suppression.
